Patent US7855211B2, “Protein kinase inhibitors” (Eli Lilly and Company, priority 2008, dated 2010)

What was measured:
[1] = Rat Oral Bioavailability Assay; assay type: in vivo; conditions: plasma, 1 mg/kg, male Sprague Dawley rats, oral suspension vs intravenous, read-out: Fraction bioavailable relative to the intravenous dose (% F)
Method: Male Sprague Dawley rats (body weight range 250-320 g) with indwelling femoral arterial cannulae are obtained from Charles River, Wilmington, Mass. 01887, USA. Test compound is administered intravenously in solution (2 mL/kg) in: 10% N-methyl pyrollidone/18% Captisol® in 22.5 mM phosphate buffer, pH 3. The final drug concentration is 0.25 mg/mL (free base equivalents). Blood samples are obtained using the indwelling cannula over 24 h. The animals are then administered an oral dose of test compound in suspension (5 mL/kg) in 1% w/v hydroxyethylcellulose/0.25% v/v polysorbate 80/0.05% v/v antifoam in purified water. The final drug concentration is 0.2 mg/mL (free base equivalents). […]
An internal standard compound (for normalisation) in acetonitrile/methanol (1:1, v/v) is added to samples of plasma to precipitate protein and the samples are centrifuged prior to analysis. The supernatants are analysed by injection and rapid gradient elution on a Javelin Betasil C18 column (20×2.1 mm cartridge, Mobile phase A: Water/1 M ammonium bicarbonate, 2000:10 v/v, Mobile Phase B: MeOH/1 M ammonium bicarbonate, 2000:10 v/v). The eluted analytes are detected by LC-MS-MS analysis using a Sciex API 4000 triple quadrupole mass spectrometer. Concentrations of compounds in plasma are determined from standards prepared under identical conditions. […]

CDK4 = molecular target: T1, CDK4 (Homo sapiens, UniProt P11802); assay: CDK4 Inhibition Assay; assay type: biochemical; conditions: CDK4 kinase, 33P-ATP, CTRF substrate
T1 construct: purchased Proqinase 0142-0373-1
T1 sequence (P11802 whole entry): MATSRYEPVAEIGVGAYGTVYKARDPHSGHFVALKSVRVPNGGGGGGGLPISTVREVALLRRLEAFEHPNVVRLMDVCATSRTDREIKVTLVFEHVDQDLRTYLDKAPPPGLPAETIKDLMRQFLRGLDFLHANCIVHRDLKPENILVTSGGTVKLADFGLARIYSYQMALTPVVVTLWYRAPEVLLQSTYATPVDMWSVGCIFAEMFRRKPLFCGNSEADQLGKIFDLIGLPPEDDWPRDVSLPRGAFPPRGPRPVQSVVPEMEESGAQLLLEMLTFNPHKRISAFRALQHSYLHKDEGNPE
T1 sequence (P30281 whole entry partner): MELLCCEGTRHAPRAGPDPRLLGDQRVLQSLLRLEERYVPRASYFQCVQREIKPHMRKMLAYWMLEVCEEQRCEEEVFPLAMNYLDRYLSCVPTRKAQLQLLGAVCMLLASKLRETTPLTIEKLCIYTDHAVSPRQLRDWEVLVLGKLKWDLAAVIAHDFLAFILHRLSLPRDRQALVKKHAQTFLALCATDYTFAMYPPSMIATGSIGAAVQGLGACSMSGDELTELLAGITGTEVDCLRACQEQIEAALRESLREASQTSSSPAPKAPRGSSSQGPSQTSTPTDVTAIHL
Method: All ligands, radiolabels, solvents, and reagents employed in the following assays are readily available from commercial sources, or can be readily synthesized by one skilled in the art.
10 μL of test compound in 20% DMSO, 20 μL of adenosine 5′-triphosphate (ATP) and C-Terminal Retinoblastoma Fragment (CTRF) (Upstate cat # 12-439) solution, and 10 μL of enzyme solution are mixed in a 96 well plate. The ATP and CRTF solution is prepared from a mixture of 40 μM ATP, 0.16 μCi [^33P] ATP and 1 μM CTRF diluted in kinase buffer of 68 mM 4-(2-hydroxyethyl)-1-piperazineethanesulfonic acid (HEPES) pH 7.4, 6.72 mM MgCl2, 6.72 mM dithiothreitol (DTT), and 0.013% TRITON™ X-100. The enzyme solution is prepared from 8 ng CDK4 enzyme (Proqinase cat # 0142-0373-1) diluted in the kinase buffer described above. Test compounds are serially diluted 1:3 in 20% DMSO to create a 10 point curve at a starting concentration of 20 μM. 20% DMSO buffer alone without added test compound is employed as a control, 500 mM ethylene diamine tetraacetic acid (EDTA) is used to determine the level of background ^33P in the absence of enzyme activity. Reagents are mixed and incubated for 90 min at 20° C. […] The wells are washed four times with 0.5% H3PO4 and the radioactivity incorporated is determined with a microplate scintillation counter (Microbeta Trilux, Wallac). […]

Pim-1 = Pim-1 (Homo sapiens, UniProt P11309); assay: Assay for Inhibition of PIM1 Kinase; assay type: biochemical
Chain of Pim-1 (P11309 whole entry): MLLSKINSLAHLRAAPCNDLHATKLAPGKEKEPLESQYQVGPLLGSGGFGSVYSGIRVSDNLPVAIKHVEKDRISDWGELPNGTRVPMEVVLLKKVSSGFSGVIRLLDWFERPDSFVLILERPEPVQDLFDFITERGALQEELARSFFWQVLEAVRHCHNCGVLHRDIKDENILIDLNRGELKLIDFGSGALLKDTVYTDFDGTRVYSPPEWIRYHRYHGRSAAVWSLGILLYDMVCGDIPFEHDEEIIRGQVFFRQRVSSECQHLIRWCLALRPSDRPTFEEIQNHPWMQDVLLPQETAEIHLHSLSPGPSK
Method: Pim-1 (human, 0.46 nM final concentration) is incubated with 8 mM MOPS pH 7.0, 0.2 mM EDTA, 100 μM of an appropriate substrate peptide (see Pim-1 kinase inhibition assay protocol as described in Chen, L. S. et al. (2009) Blood, DOI: 10.1182/blood-2009-03-212852), 10 mM MgAcetate and [γ-^33P-ATP] (specific activity approx. 500 cpm/pmol, concentration as required). The reaction is initiated by the addition of the MgATP mix and then incubated for 40 minutes at room temperature. The reaction is stopped by the addition of 3% phosphoric acid solution. 10 μL of the reaction is then spotted onto a P30 filtermat and washed three times for 5 minutes in 75 mM phosphoric acid and once in methanol prior to drying and scintillation counting. For compound inhibition testing, compounds provided as 10 mM stocks in 100% DMSO are diluted 1:10 in 100% DMSO to give a 50× stock of the top concentration of the curve. The 50× stock is then serially diluted 1:3 in 100% DMSO to create a 10 point concentration-response curve and diluted 1:50 (20 μM to 0.001 μM final in 2% final DMSO concentration) in the reaction mixture to determine compound activity. […] The percent inhibition determined from the controls on each plate and ten-point compound concentration data were then fit to a four-parameter logistic equation using ACTIVITYBASE 4.0. […]

[2] = tested on: phosphorylation of Retinoblastoma Protein (pRb); assay: Inhibition of Phosphorylation of Retinoblastoma Protein (pRb) in COLO 205 cells; assay type: cell-based; conditions: Homo sapiens, 24 h exposure, read-out: IC50 (% phosphoRB positive)
Method: COLO 205 Cells from the American Type Culture Collection (ATCC) are plated at 2000 cells/well in 96 well […] BIOCOAT™ plates, and are incubated in RPMI 1640 medium (e.g., GIBCO, catalog #52400-025) with 10% Fetal Bovine Serum (FBS e.g. Gibco cat #11000-144) and 1% sodium pyruvate (Gibco catalog #11360-070) in 37° C., 5% CO2 for 24 h. Cells are treated by adding test compound to the medium, dosing at 10 points of 1:3 dilutions across the range of 20 μM to 0.001 μM, and with final DMSO concentration at 0.25%. After 24 h exposure to the compounds, cells are fixed with the PREFER™ fixative [Anatech LTD., Cat # 414] for 30 min at RT, then are permeabilized with 0.1% TRITON® X100 in phosphate buffered saline (PBS) solution for 15 min at RT. […] Fluorescence plates are scanned with ACUMEN EXPLORER™ [Laser-scanning fluorescence microplate cytometer (comprising of 488 nm argon ion laser excitation and multiple photomultiplier tube detection), manufactured by TTP LABTECH LTD] to measure phosphorylation of Rb protein and DNA content. […] Assay outputs are percentage of each identified subpopulations, % phosphoRB positive, % 2 N and % 4 N. The IC50 and EC50 values are determined by curve fitting to a four parameter logistic for each output using ACTIVITY BASE™. […]

| IC50 (CDK4) [nM] | IC50 (Pim-1) [nM] | IC50 [2] [nM] | Structure (SMILES) | bioavailability [1] [%] |
| --- | --- | --- | --- | --- |
| – | – | – | CS(=O)(=O)O.Cc1nc2ccc(-c3nc(Nc4ccc(C5CCN(C(C)C)CC5)cn4)ncc3F)cc2n1C1CCCC1 [Example 22, [4-(3-Cyclopentyl-2-methyl-3H-benzoimidazol-5-yl)-5-fluoro-pyrimidin-2-yl]-(1′-isopropyl-1′,2′,3′,4′,5′,6′-hexahydro-[3,4′]bipyridinyl-6-yl)-amine methanesulfonate] | 48.5 |
| 3 | 3 | ~100 | CCN1CCC(Cc2ccc(Nc3ncc(F)c(-c4cc(F)c5nc(C)n(C(C)C)c5c4)n3)nc2C)CC1 [Example 25, [5-(1-Ethyl-piperidin-4-ylmethyl)-6-methyl-pyridin-2-yl]-[5-fluoro-4-(7-fluoro-3-isopropyl-2-methyl-3H-benzoimidazol-5-yl)-pyrimidin-2-yl]-amine methanesulfonate] | – |
